Experimental data as given in patent US20150025074A1, “METHODS AND COMPOSITIONS FOR TREATING SOLID TUMORS AND OTHER MALIGNANCIES” (priority 2009, published 2015).
Read-outs that look alike come from different tables or passages of the source.

Tests used:
[1] = test system: medulloblastoma cells derived from sensitive Ptch+/−Hic+/− medulloblastoma tumors; test: ex-vivo medulloblastoma proliferation assay (48 h, 3H thymidine incorporation), sensitive tumors; type: cell-based; details: Mus musculus, Medulloblastoma cell
Procedure: (§1) The effect of mTor inhibitors (e.g., compounds such as Compound A) on the proliferation of medulloblastoma cells derived from sensitive and resistant medulloblastoma tumors was evaluated by using an “ex-vivo medulloblastoma proliferation assay. Sensitive tumors means tumors (e.g., medulloblastomas) which, due to hedgehog pathway activation, respond to treatment with a smoothened inhibitor anti-cancer regimen. Resistant tumors means formerly sensitive tumors (e.g., medulloblastomas) which, in the continuos presence of a smo inhibitor, either have regrown after shrinking due to treatment, or have reappeared after being temporarily eliminated due to treatment. Resistant tumors show a decreased sensitivity or no response to smoothened inhibition.
(§2) Using Ptch+/−Hic+/− medulloblastoma tumors freshly harvested from allografted nude mice, we have developed a short-term 48 h proliferation assay that enables us to assess the in vitro potency of Smo inhibitors. The read-out for proliferation uses incorporation of 3H thymidine. The assay reflects the in vivo sensitivity of tumor cells to Compound 1.
(§3) Table 1 summarizes the results of treating medulloblastoma cells in culture with Compound 1 (Smo inhibitor) and Compound A (mTor inhibitor), or combinations thereof. […] The potency of compound A in resistant tumors was increased in the presence of 5 and 20 uM of compound 1.

[2] = test system: Ptch+/−Hic+/− medulloblastoma allograft; test: Ptch+/−Hic+/− subcutaneous medulloblastoma allograft model; type: in vivo, Harlan nu/nu mice; details: po; for effect on tumor growth / tumor volume: 80 mg/kg qd Compound 1, 10 mg/kg qd Compound A, or combination, FIG. 1
Procedure: Mouse medulloblastoma cells (1.0-5.0×10^6), dissociated directly from tumor fragments originally derived from spontaneously arising medulloblastomas in Ptch+/−Hic+/− mice, were inoculated subcutaneously into the right flank of Harlan nu/nu mice. Treatment was initiated approximately 7-10 days post implantation. […] Tumor volumes (mm3) and body weights (g) were recorded two or three times per week from all groups for analysis. Dose was body weight adjusted at time of dosing. Comparisons between treatment groups was performed using a non-parametric Kruskal-Wallis/Wilcoxon Rank Sum Test.
Tumors were calipered in two dimensions, and the volumes were calculated using the formula: (length×width2)/2, where length is the longer of the two measurements and width is the shorter one. Percent treatment/control (% T/C) values were calculated using the following formula: % T/C=100×ΔTf-i/ΔCf-i if ΔTf-i>0, % T/T0-100×ΔTf-i/T0 if ΔTf-i<0 (regression). A partial responder (PR) was defined as an animal whose tumor […] was less than 50% of the initial tumor volume by the end of the study. An animal with no palpable tumor by the end of study is defined as a complete responder (CR).
Ptch+/− mice develop medulloblastoma spontaneously (Romer, et al., Cancer Cell, Volume 6, Issue 3, pages 229-24, 2004). […] The heterozygous loss of Hic results in an earlier onset and increases the incidence rate of medulloblastomas (Briggs et al., Genes & Dev., 22: pages 770-785 2008). The in vivo efficacy of Compound 1 was evaluated in Ptch+/−Hic+/− mouse medulloblastoma allograft models, derived from corresponding transgenic mice and passaged in vivo, and following long-term continuous dosing. The following experiments were performed to evaluate if mTor inhibitors could be used either alone or in combination to treat resistant tumors or to overcome the development of resistance to Smo antagonists.
Next, a combination of Compound 1 and Compound A was explored in the Ptch+/−Hic+/− medulloblastoma allograft model.

[3] = test system: medulloblastoma cells derived from resistant Ptch+/−Hic+/− medulloblastoma tumors; test: ex-vivo medulloblastoma proliferation assay (48 h, 3H thymidine incorporation), resistant tumors; type: cell-based, mouse; details: for IC50: Mus musculus, Medulloblastoma cell
Procedure: as §1, §2, §3

[4] = Tumor type Sensitive, single agent, 48 h, 3H thymidine, read-out: IC50, proliferation of medulloblastoma cells
[5] = Tumor type Resistant, single agent, 48 h, 3H thymidine, read-out: IC50, proliferation of medulloblastoma cells

Row | IC50 [1, 4] | IC50 ([1]; sensitive cells, read-out: IC50, inhibition of sensitive cells) | IC50 [3, 5] | IC50 ([3]; resistant tumors, read-out: IC50 in resistant tumors) | SMILES | effect on tumor growth / tumor volume [2] | time to endpoint (tumor volume>700 mm3), in words ([2]; 80 mg/kg qd Compound 1, or combination with 10 mg/kg qd Compound A, FIG. 2) | time to endpoint (tumor volume>700 mm3) ([2]; 10 mg/kg qd Compound A, FIG. 2) | potency of compound A in resistant tumors ([3]; in the presence of 5 and 20 uM of compound 1) | inhibition of both sensitive and resistant tumors (comparison of IC50s) ([3]; resistant compared with sensitive tumors)
1 | 8 nM | 8 nM | 9080 nM | 9000 nM | Cc1c(C(=O)Nc2ccc(N3C[C@@H](C)O[C@@H](C)C3)nc2)cccc1-c1ccc(OC(F)(F)F)cc1 [Compound 1, 2-Methyl-4′-trifluoromethoxy-biphenyl-3-carboxylic acid [6-(cis-2,6-dimethyl-morpholin-4-yl)-pyridin-3-yl]-amide] | initially induced regression but tumors started to regrow | significantly prolonged | – | – | –
2 | 9 nM | – | 2 nM | – | CO[C@H]1C[C@@H]2CC[C@@H](C)[C@@](O)(O2)C(=O)C(=O)N2CCCC[C@H]2C(=O)O[C@H]([C@H](C)C[C@@H]2CC[C@@H](OCCO)[C@H](OC)C2)CC(=O)[C@H](C)/C=C(\C)[C@@H](O)[C@@H](OC)C(=O)[C@H](C)C[C@H](C)/C=C/C=C/C=C/1C [Compound A, (1R,9S,12S,15R,16E,18R,19R,21R,23S,24E,26E,28E,30S,32S,35R)-1,18-dihydroxy-12-{(1R)-2-[(1S,3R,4R)-4-(2-hydroxyethoxy)-3-methoxycyclohexyl]-1-methylethyl}-19,30-dimethoxy-15,17,21,23,29,35-hexamethyl-11,36-dioxa-4-aza-tricyclol-[30.3.1.04.9]hexatriaconta-16,24,26,28-tetraene-2,3,10,14,20-pentaone] | only a moderate effect on tumor growth compared to vehicle control | – | ~20 days | increased | inhibited both sensitive and resistant tumors with similar IC50s
